We go through five molecules from patent US11351121B2, “Calcium alginate dosage formulations, and methods of making and using thereof” (Temple University—Of The Commonwealth System of Higher …, priority 2015, dated 2022).

Entries after “also recorded” stand apart in the source; their conditions may differ. Some results are limits rather than exact numbers.

Data set [1] in a line: Drug loss during the cross-linking process. Type of data set: physicochemical. The settings on record: previous formulations (with glycerol, lactose, sucrose).
The nature of data set [2]: Dissolution of formulations A-K: acid stage (0.1 N HCl two hours) then buffer stage. Type of data set: physicochemical. The settings on record: for T80: buffer stage pH 7.2 phosphate buffer after 0.1 N HCl two hours; for % released in acid stage: after two hours. On the procedure: (§1) A dissolution study was performed on each of the different tablets to determine their dissolution profiles. Dissolution USP apparatus II (Paddle) was initially used. […] Rotation speed was 50 RPM and the temperature was 37.0±0.5° C. The dissolution media used was 900 ml of 0.1 N hydrochloric acid in each vessel. After 2 hours the dissolution media was changed to 900 ml of standard 50 mM pH 7.2 potassium phosphate buffer. A 1 ml sample was withdrawn at each time. The samples were analyzed by HPLC.
HPLC analysis: an Agilent 1100 series HPLC with auto-sampler and dual wavelength detector was used. The mobile phase was acetonitrile to water with 0.5% formic acid (60:50 v/v).
Methods: different formulations were developed. […] The ingredients of all the formulations were mixed with deionized water at room temperature. The basket method described in chapter two was used to fabricate the tablets. 2 or 1.5 ml of the gel was dispensed into the basket as indicated.
Release profiles of the tablets were investigated in different buffer capacities and pH values. The tablets were pretreated in the acid stage for two hours before transferring them to the buffer stage.

Data set [3] is described as follows: Dissolution of compressed caffeine tablets (Carver press, Minipress IIBD). Type of data set: physicochemical. The settings on record: compressed tablet with alginate film coating. As for the experimental part: Coated Tablet Results: different weight gains were tested to try to achieve the delayed release profile.
Because it was somewhat more difficult to produce tablets with similar hardness on the Minipress using the formulation used on the Carver press, lactose was added to increase the hardness of the tablets.

For data set [4] the following is noted: cited from earlier work.
Data set [5] is described as follows: Dissolution study of calcium alginate tablets, USP apparatus I (basket), 0.1 N HCl 2 hours then pH 7.2 phosphate buffer. Type of data set: physicochemical. The settings on record: after two hours. On the procedure:
Analysis: an Agilent 1100 series HPLC with autosampler and dual wavelength detector was used. The mobile phase was acetonitrile to water with 0.5% formic acid (60:50 v/v). The flow rate was 1.2 mL/min and the sample injection volume was 50 μL and the wavelength of detection was 214 nm. The column used was a 150 by 4.6 mm Eclipse Plus C18 column (Agilent).
as §1

Data set [6] is described as follows: Dissolution of calcium alginate tablets in different dissolution media (deionized water, EDTA, EDTA+CaCl2). The data set is classed as physicochemical. On the procedure:
In order to investigate the role of solutes and pH of the media on the erosion process, calcium alginate tablets made with same formulation were treated in different dissolution media.
The dissolution of the drug from the Ca Alginate dosage form was dependent on two things. First the pH of the media had to be neutral or high. Second the media had to have the ability to complex with the Calcium in solution. […] The drug release at pH 7.2 in media with either EDTA or phosphate buffer was complete in 6 hours. Drug release in 0.1 N HCl was less than 5%.

The conditions of data set [7]: poly(ethyloxaline)/PMAA matrix disks, 0.9% saline; cited from earlier work.

With `O=C(O)c1ccccc1` [Benzoic acid, benzoic acid], the “benzoic acid lost during the cross-linking process” value in data set [1] is “more than 30%”. Also, the “drug load released during residence time in the acid stage” value in data set [2] (benzoic acid, previous formulations (with glycerol, lactose, sucrose)) is listed as “more than 30%”. The same molecule registered a T80 in data set [2] (formulation B) of 6.76 h. Further, in data set [2] (formulation C), the “released in the acid stage after two hours” value was “about 18%” and the T80 was found to be 6.4 h. For the same molecule, in data set [2] (formulation K), the “% released in acid stage” value worked out at 7%. In addition, in data set [2] (formulation K, buffer stage), the “erosion of tablets at pH 3 and pH 4” value is recorded as “no erosion was detected”; the “erosion of tablets at pH 5” value was “started to erode but at a slower rate compared to pH 7.2”. Further, in data set [2] (formulation K, 100 mM phosphate buffer, pH 7.2), the “effect of higher buffer capacity on release rate” value is on record as “minimum effect on the release rate”. In data set [2] (formulation K, 25 and 10 mM phosphate buffer, pH 7.2), the “effect of lower buffer capacity on drug release” value is “a slower drug release”.

For `Cn1c(=O)c2c(ncn2C)n(C)c1=O` [Caffeine, caffeine], in data set [2] (formulation K), the “% released in acid stage” value is 18%. For the same molecule, in data set [3], the “caffeine release by 12 hours” value stood at 80% and the “time for which caffeine is retained” value is “up to 8 hours”.

On to `COc1ccccc1OCC(O)CO` (stereo not drawn) [Guaifenesin, guaifenesin], for which, in data set [2] (formulation K), the “% released in acid stage” value is 17%. Further, the solubility result in data set [4] is listed as “highly soluble”.

For `CC(C)Cc1ccc(C(C)C(=O)O)cc1` (stereo not drawn) [Ibuprofen, ibuprofen], the “drug released in 0.1 N HCl media” value in data set [5] is given as “less than 5%”. Besides, the “release of the drug in pH 7.2 deionized water” value in data set [6] (calcium alginate tablets, pH 7.2 deionized water) is “no significant release; also recorded: no drug release”. In data set [6] (pH 7.2 media with either EDTA or phosphate buffer), the “time to complete drug release” value worked out at 6 h. Moreover, the “drug release in 10 mM EDTA dissolution medium” value in data set [6] (tablets with 1 g stearic acid, 1 molar CaCl2 3 minutes, 10 mM EDTA) is “Complete drug release”. Further, the “erosion or release in EDTA solution treated with calcium chloride” value in data set [6] (tablets with 1 g stearic acid, 1 molar CaCl2 3 minutes, 10 mM EDTA+30 mM CaCl2) is “No erosion or release”. Besides, the T80 in data set [2] (formulation B) amounted to 4.8 h; in data set [2] (formulation C) it was 6.71 h. In addition, in data set [2] (formulation K), the “% released in acid stage” value is on record as below 1%.

On to “insulin: regular zinc insulin in a poly(ethyloxaline)/PMAA matrix (Kwon et al.)”, for which the “insulin released during the 3 days equilibrium period in saline” value in data set [7] was “less than 4 % of the initial insulin load”.
